The record followed here is PubChem BioAssay AID624092 (The Scripps Research Institute Molecular Screening Center, 2012).

The target in this experiment is Beta-lactamase TEM (Escherichia coli) (UniProt P62593). Put plainly: TEM-1 beta-lactamase inhibitor potency, late-stage follow-up, selectivity assay, biochemical, absorbance, probe candidates and analogs (AID 624092). The following applies: purified TEM-1, nitrocefin hydrolysis, epi-absorbance.

Active and inactive are the calls of the source.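 The calls were made as follows: active = compounds blocking the TEM-1 enzyme with a half-maximal inhibitory concentration of 10 micromolar or lower; inactive = the rest.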

Chain of Beta-lactamase TEM (Escherichia coli) (P62593 whole entry, looked up): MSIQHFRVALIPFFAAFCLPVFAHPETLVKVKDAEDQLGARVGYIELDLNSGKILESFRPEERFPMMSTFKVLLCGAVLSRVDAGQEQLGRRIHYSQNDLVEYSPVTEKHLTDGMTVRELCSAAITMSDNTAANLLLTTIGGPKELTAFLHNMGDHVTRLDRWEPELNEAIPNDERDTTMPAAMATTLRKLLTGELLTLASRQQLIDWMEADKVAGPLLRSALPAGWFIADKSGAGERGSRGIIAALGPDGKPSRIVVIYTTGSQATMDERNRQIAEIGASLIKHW

Consider `CN1CCN(NC(=O)CN2C(=O)/C(=C/c3c(Cl)cccc3Cl)SC2=S)CC1`, for which the IC50 is > 60 µM (inactive).

With `CN1CCN(NC(=O)CN2C(=O)/C(=C/c3c(Cl)ccc(Cl)c3Cl)SC2=S)CC1`, the IC50 was > 60 µM (inactive).

The IC50 is the midpoint of a concentration-inhibition curve.
